Here are results for two compounds from article PMC7790160 (Journal of pharmaceutical sciences, 2020).

Each structure is given as a SMILES string.

One series concerns H460 (KRAS mutated). As to the kind of experiment: Cytotoxicity assay. The class given is cell-based.
The subject of another series is total MET. The experiment in a line: Western blot analysis of total MET. The note with it: all cell lines, 48 h. The class given is cell-based.
In series [1] the test system is HCC827-Cl4 (T790M EGFR ERL Resistant). The experiment in a line: Cytotoxicity assay. Type of series: cell-based. The note with it: HCC827-CL4, 48 h, single agent; no unit printed in Table 3 (b74 gives μM).
The conditions of series [2]: cited from earlier work.
The test system of series [3] is HCC827–4 μM (Acquired 4 μM ERL Resistant). As to the kind of experiment: Cytotoxicity assay. To be noted: 48 h, single agent, no unit printed in Table 3 (b74 gives μM). The class given is cell-based.
For series [4], the system named is H1975-CL1 (EGFR G796D mutation rociletinib resistant). As to the kind of experiment: Cytotoxicity assay. The class given is cell-based. To be noted: H1975 CL1, 48 h, single agent; no unit printed in Table 3 (b74 gives μM).
Series [5] relates to HCC827. The experiment in a line: Cytotoxicity assay. Type of series: cell-based. To be noted: HCC827, 48 h, single agent; no unit printed in Table 3 (b74 gives μM).
The next series has as its system total EGFR. The experiment in a line: Western blot analysis of total EGFR. Type of series: cell-based. The note with it: all cell lines, 48 h.
Series [6] concerns H1975 (T790M EGFR ERL Resistant). The experiment in a line: Cytotoxicity assay. The note with it: H1975, 48 h, single agent; no unit printed in Table 3 (b74 gives μM). Type of series: cell-based.
A further series deals with H1299 (p53 mutated). As to the kind of experiment: Cytotoxicity assay. The class given is cell-based. To be noted: H1299, 48 h, single agent.
Another series deals with NSCLC cell lines. The experiment in a line: Cytotoxicity assay, statements across cell lines. The class given is cell-based.
The test system of series [7] is HCC827. As to the kind of experiment: Apoptosis assay. The class given is cell-based. The note with it: 12 μM ERL, 2 μM CDODA-Me alone or in combination, 48 h.
The test system of a further series is H1975. As to the kind of experiment: Apoptosis assay. The class given is cell-based. To be noted: 12 μM ERL alone or with 2 μM CDODA-Me, 48 h.
In series [8] the test system is H460. The experiment in a line: Apoptosis assay. The class given is cell-based. The note with it: 12 μM ERL alone or with 2 μM CDODA-Me, 48 h.
In another series the test system is HCC827–4 μM. As to the kind of experiment: Clonogenic assay. Type of series: cell-based. To be noted: 12 μM ERL, 48 h, reseeded, p < 0.001.
The test system of the next series is p-EGFR. As to the kind of experiment: Western blot analysis of p-EGFR. Type of series: cell-based. To be noted: 48 h.
In another series the test system is HCC827–4μM. The experiment in a line: Apoptosis assay. The note with it: 12 μM ERL alone or with 2 μM CDODA-Me, 48 h. Type of series: cell-based.
Series [9] concerns HCC827. As to the kind of experiment: Clonogenic assay. To be noted: 12 μM ERL, 48 h, reseeded, p < 0.001. Type of series: cell-based.
For the next series, the system named is HCC827-CL4. As to the kind of experiment: Apoptosis assay. Type of series: cell-based. To be noted: 12 μM ERL alone or with 2 μM CDODA-Me, 48 h.
Series [10] relates to H460. The experiment in a line: Clonogenic assay. Type of series: cell-based. The note with it: 12 μM ERL, 48 h, reseeded, p < 0.001.
The next series concerns H1975-CL1. As to the kind of experiment: Apoptosis assay. The class given is cell-based. The note with it: 12 μM ERL alone or with 2 μM CDODA-Me, 48 h.
In series [11] the test system is EGFR mutated non–small cell lung cancer. The note with it: patients harboring exon 19 deletion / exon 21 EGFR mutations; cited from earlier work.
A further series concerns p-MET. As to the kind of experiment: Western blot analysis of p-MET. Type of series: cell-based. The note with it: 12 μM ERL alone or with 2 μM CDODA-Me, 48 h.

In the case of `COC(=O)[C@@]1(C)CC[C@]2(C)CC[C@]3(C)C(=CC(=O)[C@@H]4[C@@]5(C)C=C(C#N)C(=O)C(C)(C)[C@@H]5CC[C@]43C)[C@@H]2C1` [CDODA-Me, Methyl 2-cyano-3, 11-dioxo-18b-olean-1, 12-dien-30-oate], the IC50 was 5.5 ± 0.8 µM with H460 (KRAS mutated) (H460, 48 h, single agent, no unit printed in Table 3 (b74 gives μM)); 5.7 ± 2.04 µM in [1]; 4.4 ± 1.3 µM in series [3]; 6.6 ± 1.1 µM in series [4]; 4.5 ± 1.6 µM in the series on HCC827 [5]; 6.2 ± 1.64 µM in series [6]. The compound also came in with an IC50 in the series on H1299 (p53 mutated) of 5.4 ± 2.4 µM. The “total MET expression” value in the series on total MET was “no effect”. Besides, in series [2], the “permeability (classification)” value is on record as “high permeability”. In addition, the “solubility (classification)” value in series [2] is given as “low solubility”. For the same compound, the “total EGFR expression” value with total EGFR is listed as “no effect”. In the series on NSCLC cell lines (2 μM, all cell lines), this compound registered a cell viability of under 20%. Also, the 20% effect level with NSCLC cell lines (resistant HCC827 cells) (IC20) was put at 2 µM. In the series with HCC827 [7], the apoptotic cells entry is reported as “approximately 21.68 ± 1.8%”.
With `C#Cc1cccc(Nc2ncnc3cc(OCCOC)c(OCCOC)cc23)c1` [ERL, erlotinib], the apoptotic cells was 15 ± 3.7% in the series on H1975; 5 ± 4.3% in the series with H460 [8]; 11 ± 2.9% in the series on HCC827–4μM; 8 ± 2.5% with HCC827-CL4; 9 ± 2.7% with H1975-CL1; about 64.23 ± 1.7% in the series with HCC827 [7]. The same compound showed an IC50 in the series with H460 (KRAS mutated) (Homo sapiens, NCI-H460, 48 h) of 16.3 ± 1.2 µM. Further, the colony formation entry in the series on HCC827–4 μM, with HCC827 [9] and in the series on H460 [10] was “decreased colony formation” each time. Besides, in the series on p-EGFR (H1975-CL1, 12 μM ERL alone or with 2 μM CDODA-Me), the p-EGFR expression entry is “not significant”. Also, the P-EGFR expression result in the series with p-EGFR (HCC827, 12 μM ERL (p < 0.01) or 12 μM ERL + 2 μM CDODA-Me (p < 0.05)) is “significantly decreased”. Moreover, in series [11], the “patients with decreased tumor volume” value was 70%. Besides, the “expression of p-MET” value in the series with p-MET (H1975-CL1, p < 0.001) is recorded as “decreased p-MET expression”; with p-MET (H1975, p < 0.01), “decreased p-MET expression”; in the series with p-MET (HCC827-CL4, p < 0.01) it was “decreased p-MET expression”.
